Test results taken from ChEMBL document CHEMBL5724914, “Linking interpersonal differences in gut microbiota composition and drug biotransformation activity” (2024).

Test: (§1) The drug is tested on Z-027 corresponding to metagenome with ENA study accession number: PRJEB37062 and ENA sample accession number: ERS12561826 for biotransformation under anaerobic condition. The drug concentrations were measured over 9 timepoints collected between 0 and 24 hours of incubation by liquid-chromatography-coupled mass spectrometry (LC–MS)
Conditions: 2 µM
Also: call rule not given here.

Structure (SMILES) | Bacterial Biotransformation
CC(C)c1c(CN(C)C(C)Cc2ccccc2)n(C)n(-c2ccccc2)c1=O (stereo not given) [FAMPROFAZONE] | Compound metabolized
Nc1nc(N)nc(-c2cc(Cl)ccc2Cl)n1.O=C(O)/C=C\C(=O)O [IRSOGLADINE MALEATE] | Compound NOT metabolized

Test: (§2) The drug is tested on Z-019 corresponding to rat gut metagenome with ENA study accession number: PRJEB37062 and ENA sample accession number: ERS12561818 for biotransformation under anaerobic condition. The drug concentrations were measured over 9 timepoints collected between 0 and 24 hours of incubation by liquid-chromatography-coupled mass spectrometry (LC–MS)
Conditions: 2 µM

Structure (SMILES) | Bacterial Biotransformation
CC(C)c1c(CN(C)C(C)Cc2ccccc2)n(C)n(-c2ccccc2)c1=O (stereo not given) [FAMPROFAZONE] | Compound NOT metabolized
Nc1nc(N)nc(-c2cc(Cl)ccc2Cl)n1.O=C(O)/C=C\C(=O)O [IRSOGLADINE MALEATE] | Compound NOT metabolized

Test: as §2, with “on Z-018” for “on Z-019”, “to pig” for “to rat”, “number: ERS12561817” for “number: ERS12561818”
Conditions: 2 µM

Structure (SMILES) | Bacterial Biotransformation
CC(C)c1c(CN(C)C(C)Cc2ccccc2)n(C)n(-c2ccccc2)c1=O (stereo not given) [FAMPROFAZONE] | Compound NOT metabolized
Nc1nc(N)nc(-c2cc(Cl)ccc2Cl)n1.O=C(O)/C=C\C(=O)O [IRSOGLADINE MALEATE] | Compound NOT metabolized

Test: as §2, with “Z-014” for “Z-019”, “ERS12561814” for “ERS12561818”
Conditions: 2 µM

Structure (SMILES) | Bacterial Biotransformation
CC(C)c1c(CN(C)C(C)Cc2ccccc2)n(C)n(-c2ccccc2)c1=O (stereo not given) [FAMPROFAZONE] | Compound metabolized
Nc1nc(N)nc(-c2cc(Cl)ccc2Cl)n1.O=C(O)/C=C\C(=O)O [IRSOGLADINE MALEATE] | Compound NOT metabolized

Test: as §1, with “Z-010” for “Z-027”, “ERS12561810” for “ERS12561826”
Conditions: 2 µM

Structure (SMILES) | Bacterial Biotransformation
CC(C)c1c(CN(C)C(C)Cc2ccccc2)n(C)n(-c2ccccc2)c1=O (stereo not given) [FAMPROFAZONE] | Compound metabolized
Nc1nc(N)nc(-c2cc(Cl)ccc2Cl)n1.O=C(O)/C=C\C(=O)O [IRSOGLADINE MALEATE] | Compound NOT metabolized

Test: as §2, with “on Z-006” for “on Z-019”, “to mouse” for “to rat”, “number: ERS12561806” for “number: ERS12561818”
Conditions: 2 µM

Structure (SMILES) | Bacterial Biotransformation
CC(C)c1c(CN(C)C(C)Cc2ccccc2)n(C)n(-c2ccccc2)c1=O (stereo not given) [FAMPROFAZONE] | Compound metabolized
Nc1nc(N)nc(-c2cc(Cl)ccc2Cl)n1.O=C(O)/C=C\C(=O)O [IRSOGLADINE MALEATE] | Compound NOT metabolized

Test: as §1, with “Z-005” for “Z-027”, “ERS12561805” for “ERS12561826”
Conditions: 2 µM

Structure (SMILES) | Bacterial Biotransformation
CC(C)c1c(CN(C)C(C)Cc2ccccc2)n(C)n(-c2ccccc2)c1=O (stereo not given) [FAMPROFAZONE] | Compound metabolized
Nc1nc(N)nc(-c2cc(Cl)ccc2Cl)n1.O=C(O)/C=C\C(=O)O [IRSOGLADINE MALEATE] | Compound NOT metabolized

Test: as §1, with “Z-004” for “Z-027”, “ERS12561804” for “ERS12561826”
Conditions: 2 µM

Structure (SMILES) | Bacterial Biotransformation
CC(C)c1c(CN(C)C(C)Cc2ccccc2)n(C)n(-c2ccccc2)c1=O (stereo not given) [FAMPROFAZONE] | Compound metabolized
Nc1nc(N)nc(-c2cc(Cl)ccc2Cl)n1.O=C(O)/C=C\C(=O)O [IRSOGLADINE MALEATE] | Compound NOT metabolized

Test: as §2, with “on WLS-370” for “on Z-019”, “to human” for “to rat”, “number: ERS12561793” for “number: ERS12561818”
Conditions: 2 µM

Structure (SMILES) | Bacterial Biotransformation
CC(C)c1c(CN(C)C(C)Cc2ccccc2)n(C)n(-c2ccccc2)c1=O (stereo not given) [FAMPROFAZONE] | Compound metabolized
Nc1nc(N)nc(-c2cc(Cl)ccc2Cl)n1.O=C(O)/C=C\C(=O)O [IRSOGLADINE MALEATE] | Compound NOT metabolized

Test: as §2, with “on WLS-310” for “on Z-019”, “to human” for “to rat”, “number: ERS12561785” for “number: ERS12561818”
Conditions: 2 µM

Structure (SMILES) | Bacterial Biotransformation
CC(C)c1c(CN(C)C(C)Cc2ccccc2)n(C)n(-c2ccccc2)c1=O (stereo not given) [FAMPROFAZONE] | Compound metabolized
Nc1nc(N)nc(-c2cc(Cl)ccc2Cl)n1.O=C(O)/C=C\C(=O)O [IRSOGLADINE MALEATE] | Compound NOT metabolized

Test: as §2, with “on WLS-086” for “on Z-019”, “to human” for “to rat”, “number: ERS12561752” for “number: ERS12561818”
Conditions: 2 µM

Structure (SMILES) | Bacterial Biotransformation
CC(C)c1c(CN(C)C(C)Cc2ccccc2)n(C)n(-c2ccccc2)c1=O (stereo not given) [FAMPROFAZONE] | Compound metabolized
Nc1nc(N)nc(-c2cc(Cl)ccc2Cl)n1.O=C(O)/C=C\C(=O)O [IRSOGLADINE MALEATE] | Compound metabolized

Test: as §2, with “on WLS-010” for “on Z-019”, “to human” for “to rat”, “number: ERS12561743” for “number: ERS12561818”
Conditions: 2 µM

Structure (SMILES) | Bacterial Biotransformation
CC(C)c1c(CN(C)C(C)Cc2ccccc2)n(C)n(-c2ccccc2)c1=O (stereo not given) [FAMPROFAZONE] | Compound metabolized
Nc1nc(N)nc(-c2cc(Cl)ccc2Cl)n1.O=C(O)/C=C\C(=O)O [IRSOGLADINE MALEATE] | Compound NOT metabolized

Test: as §2, with “on WLS-007” for “on Z-019”, “to human” for “to rat”, “number: ERS12561742” for “number: ERS12561818”
Conditions: 2 µM

Structure (SMILES) | Bacterial Biotransformation
CC(C)c1c(CN(C)C(C)Cc2ccccc2)n(C)n(-c2ccccc2)c1=O (stereo not given) [FAMPROFAZONE] | Compound metabolized
Nc1nc(N)nc(-c2cc(Cl)ccc2Cl)n1.O=C(O)/C=C\C(=O)O [IRSOGLADINE MALEATE] | Compound NOT metabolized

Conditions: human gut metagenome, 24 h, 2 µM

Structure (SMILES) | Bacterial Biotransformation
CC(C)c1c(CN(C)C(C)Cc2ccccc2)n(C)n(-c2ccccc2)c1=O (stereo not given) [FAMPROFAZONE] | Compound metabolized
Nc1nc(N)nc(-c2cc(Cl)ccc2Cl)n1.O=C(O)/C=C\C(=O)O [IRSOGLADINE MALEATE] | Compound NOT metabolized

Conditions: human gut metagenome, 24 h, 2 µM
Remark: another data set of the same source

Structure (SMILES) | Bacterial Biotransformation
CC(C)c1c(CN(C)C(C)Cc2ccccc2)n(C)n(-c2ccccc2)c1=O (stereo not given) [FAMPROFAZONE] | Compound metabolized
Nc1nc(N)nc(-c2cc(Cl)ccc2Cl)n1.O=C(O)/C=C\C(=O)O [IRSOGLADINE MALEATE] | Compound NOT metabolized

Conditions: human gut metagenome, 24 h, 2 µM
Remark: another data set of the same source

Structure (SMILES) | Bacterial Biotransformation
CC(C)c1c(CN(C)C(C)Cc2ccccc2)n(C)n(-c2ccccc2)c1=O (stereo not given) [FAMPROFAZONE] | Compound metabolized
Nc1nc(N)nc(-c2cc(Cl)ccc2Cl)n1.O=C(O)/C=C\C(=O)O [IRSOGLADINE MALEATE] | Compound metabolized

Conditions: human gut metagenome, 24 h, 2 µM
Remark: another data set of the same source

Structure (SMILES) | Bacterial Biotransformation
CC(C)c1c(CN(C)C(C)Cc2ccccc2)n(C)n(-c2ccccc2)c1=O (stereo not given) [FAMPROFAZONE] | Compound metabolized
Nc1nc(N)nc(-c2cc(Cl)ccc2Cl)n1.O=C(O)/C=C\C(=O)O [IRSOGLADINE MALEATE] | Compound NOT metabolized

Conditions: human gut metagenome, 24 h, 2 µM
Remark: another data set of the same source

Structure (SMILES) | Bacterial Biotransformation
CC(C)c1c(CN(C)C(C)Cc2ccccc2)n(C)n(-c2ccccc2)c1=O (stereo not given) [FAMPROFAZONE] | Compound metabolized
Nc1nc(N)nc(-c2cc(Cl)ccc2Cl)n1.O=C(O)/C=C\C(=O)O [IRSOGLADINE MALEATE] | Compound NOT metabolized

Conditions: human gut metagenome, 24 h, 2 µM
Remark: another data set of the same source

Structure (SMILES) | Bacterial Biotransformation
CC(C)c1c(CN(C)C(C)Cc2ccccc2)n(C)n(-c2ccccc2)c1=O (stereo not given) [FAMPROFAZONE] | Compound metabolized
Nc1nc(N)nc(-c2cc(Cl)ccc2Cl)n1.O=C(O)/C=C\C(=O)O [IRSOGLADINE MALEATE] | Compound NOT metabolized

Conditions: human gut metagenome, 24 h, 2 µM
Remark: another data set of the same source

Structure (SMILES) | Bacterial Biotransformation
CC(C)c1c(CN(C)C(C)Cc2ccccc2)n(C)n(-c2ccccc2)c1=O (stereo not given) [FAMPROFAZONE] | Compound metabolized
Nc1nc(N)nc(-c2cc(Cl)ccc2Cl)n1.O=C(O)/C=C\C(=O)O [IRSOGLADINE MALEATE] | Compound metabolized
